Here are results for two molecules from patent US20230285411A1, “DRUG FORMULATION CONTAINING SEPETAPROST” (SANTEN PHARMACEUTICAL CO., LTD., priority 2020, published 2023).

Common to all, as to assay type: in vivo, cynomolgus monkey
For assay [1], the system named is cynomolgus monkeys (monkeys with normal intraocular pressure), selected monkeys with an inadequate response to latanoprost. In words: Selection of monkeys with inadequate response to latanoprost: intraocular pressure after single latanoprost eye drop. Conditions: for intraocular pressure change value: 0.005% (w/v) eye drop, 20 μL/eye once, 7 selected monkeys. Here is the method: 1. Selection of monkeys with inadequate response to latanoprost Latanoprost eye drop was administered to cynomolgus monkeys (monkeys with normal intraocular pressure) and each individual animal was examined for responsiveness to latanoprost to select monkeys with an inadequate response to latanoprost.
(§1) (Eye Drop) • Latanoprost eye drop: Xalatan® Eye Drops 0.005% (w/v) (Pfizer Japan Inc.)
(Test Animals) • Cynomolgus monkeys: 32 animals (Sex/male)
(§2) <Methods for Administration and Measurement> • (1) An intraocular pressure was measured immediately before administering the test eye drop and was defined as the pre-administration intraocular pressure value (0 hour). • (2) The test eye drop was administered once (20 μL/eye) to one eye (right eye) of the test animals using a PIPETMAN. The contralateral eye was untreated. • (3) An intraocular pressure was measured at 2, 4, and 6 hours after the administration. The intraocular pressure was measured three times for each to calculate its average value. An intraocular pressure change value (mmHg) was calculated as the difference from the pre-administration intraocular pressure value (0 hour) at each measurement time point.
The test was conducted as a crossover study. A physiological saline solution was administered as a test eye drop to a control group. Two series of administering the latanoprost eye drop were conducted and designated as a latanoprost (first time) group and a latanoprost (second time) group, respectively.

Assay [2] relates to monkeys with an inadequate response to latanoprost. The assay can be described thus: Test for effect of latanoprost on lowering intraocular pressure in monkeys with inadequate response to latanoprost. Particulars: for intraocular pressure change value: 20 μL/eye once. Here is the method: Latanoprost eye drop was administered to the monkeys with an inadequate response to latanoprost, and its effect on lowering the intraocular pressure at 10 and 12 hours after the administration was evaluated.
as §1
(§3) (Test Animals) • Cynomolgus monkeys: 7 animals (sex: male) selected in “1. Selection of monkeys with inadequate response to latanoprost”
as §2, with “10” for “2, 4,”, “12” for “6”

For assay [3] the test system is unchanged. The assay can be described thus: Test for effect of sepetaprost on lowering intraocular pressure in monkeys with inadequate response to latanoprost. Particulars: for intraocular pressure lowering action: 10 and 12 hours after the administration, in words; for intraocular pressure lowering width / intraocular pressure change value: 0.002% (w/v) eye drop; for intraocular pressure change value: 20 μL/eye once. Here is the method: Sepetaprost eye drop was administered to monkeys with an inadequate response to latanoprost, and its effect on lowering the intraocular pressure at 10 and 12 hours after the administration was evaluated.
(Eye Drop) • Sepetaprost eye drop: Sepetaprost was dissolved in a base, and then, a sepetaprost eye drop with a concentration of 0.002% (w/v) was prepared by using a commonly used method.
as §3
as §2, with “[…].” for “PIPETMAN.”, “10” for “2, 4,”, “12” for “6”
The test was conducted as a crossover study. The above-mentioned base was administered as a test eye drop to a control group. Two series of administering the sepetaprost eye drop were conducted and designated as a sepetaprost (first time) group and a sepetaprost (second time) group, respectively.

[4] abbreviates: 12 hours after administration, 0.005% (w/v) eye drop.
Setting [5] is: first time group, 10 hours after administration.
Where [6] appears, read: first time group, 12 hours after administration.
Setting [7] is: second time group, 10 hours after administration.
The mark [8] stands for this setting: second time group, 12 hours after administration.

`CC(C)OC(=O)CCC/C=C\C[C@@H]1[C@@H](CC[C@@H](O)CCc2ccccc2)[C@H](O)C[C@@H]1O` [Latanoprost, latanoprost]: the “change over time in the intraocular pressure” value in assay [1] (first time and second time groups, up to 6 hours after the administration, in words) is “little change over time”. Besides, the “intraocular pressure change value” was 1.0 mmHg in assay [1] (first time group, 2 hours after administration); −0.2 mmHg in assay [1] (first time group, 4 hours after administration); −0.6 mmHg in assay [1] (first time group, 6 hours after administration); 0.4 mmHg in assay [1] (second time group, 2 hours after administration); 0.0 mmHg in assay [1] (second time group, 4 hours after administration); −0.1 mmHg in assay [1] (second time group, 6 hours after administration). Also, the “intraocular pressure change value” in assay [2] (10 hours after administration, 0.005% (w/v) eye drop) is −0.5 mmHg; in assay [2] (setting [4]), −1.2 mmHg. Also, the “intraocular pressure lowering width” value in assay [2] (setting [4]) was 1.2 mmHg. In addition, the “intraocular pressure lowering effect” value in assay [2] (up to 12 hours after the administration, in words) is listed as “inadequate”.

As for `CC(C)OC(=O)CCC[C@H]1CC[C@@H]2[C@@H](/C=C/[C@@H](O)COc3cc(F)ccc3F)[C@H](O)C[C@@H]2OC1` [Sepetaprost, 2-propanyl 4-{(3S,5aR,6R,7R,8aS)-6-[(1E,3R)-4-(2,5-difluorophenoxy)-3-hydroxy-1-buten-1-yl]-7-hydroxyoctahydro-2H-cyclopenta[b]oxepin-3-yl}butanoate], the “intraocular pressure lowering action” value in assay [3] is “adequate”; in assay [3] (listed as sepetaprost eye drop) it was “significant”. Further, the “intraocular pressure lowering width” value in assay [3] (setting [5]) is listed as 3.1 mmHg; in assay [3] (setting [6]), 3.3 mmHg; in assay [3] (setting [7]), 2.6 mmHg; in assay [3] (setting [8]) it was 3.4 mmHg. In addition, the “intraocular pressure change value” in assay [3] (setting [5]) is −3.1 mmHg; in assay [3] (setting [6]), −3.3 mmHg; in assay [3] (setting [7]) it was −2.6 mmHg; in assay [3] (setting [8]), −3.4 mmHg.
